One series has as its target JNK3α1 (Homo sapiens, UniProt P53779). Type of series: biochemical. Here is the method: (§1) A 10-point titration of all compounds was carried out in 3-fold dilutions from 10 μM to 0.5 nM.
The next series has as its target JNK1 (Homo sapiens, UniProt P45983). The experiment in a line: JNK1 homogeneous time-resolved fluorescence enzyme inhibition assay. Type of series: biochemical. As to conditions: for R: ratio of IC50 values of JNK1 over JNK3: isoform selectivity against JNK1. The protocol: as §1
Another series addresses p38α (Homo sapiens, UniProt Q16539). The experiment in a line: p38 enzyme inhibition assay. To be noted: mean of ≥2 experiments; read-out: Biochemical inhibition IC50 p38α.
The target of a further series is JNK2 (Homo sapiens, UniProt P45984). Briefly: JNK2 homogeneous time-resolved fluorescence enzyme inhibition assay. In kind it is biochemical. To be noted: for R: ratio of IC50 values of JNK2 over JNK3: isoform selectivity against JNK2; for IC50: mean of ≥2 experiments, read-out: Biochemical inhibition IC50 JNK2. The protocol: as §1
JNK2, sequence (P45984 whole entry, canonical isoform): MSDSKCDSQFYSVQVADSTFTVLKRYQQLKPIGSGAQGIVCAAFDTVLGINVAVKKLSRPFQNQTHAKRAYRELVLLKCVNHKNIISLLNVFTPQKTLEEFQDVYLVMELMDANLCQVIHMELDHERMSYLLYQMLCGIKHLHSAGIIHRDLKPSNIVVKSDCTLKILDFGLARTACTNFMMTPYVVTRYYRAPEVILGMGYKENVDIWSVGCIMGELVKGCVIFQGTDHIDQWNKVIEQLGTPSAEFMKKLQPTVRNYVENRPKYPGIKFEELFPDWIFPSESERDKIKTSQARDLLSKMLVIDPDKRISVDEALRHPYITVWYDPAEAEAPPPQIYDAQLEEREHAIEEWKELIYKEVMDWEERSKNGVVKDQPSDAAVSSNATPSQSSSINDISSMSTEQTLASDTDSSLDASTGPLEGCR
The next series has as its target T1, CYP1A2 (Homo sapiens, UniProt P05177).
T1 sequence (P05177 1-516): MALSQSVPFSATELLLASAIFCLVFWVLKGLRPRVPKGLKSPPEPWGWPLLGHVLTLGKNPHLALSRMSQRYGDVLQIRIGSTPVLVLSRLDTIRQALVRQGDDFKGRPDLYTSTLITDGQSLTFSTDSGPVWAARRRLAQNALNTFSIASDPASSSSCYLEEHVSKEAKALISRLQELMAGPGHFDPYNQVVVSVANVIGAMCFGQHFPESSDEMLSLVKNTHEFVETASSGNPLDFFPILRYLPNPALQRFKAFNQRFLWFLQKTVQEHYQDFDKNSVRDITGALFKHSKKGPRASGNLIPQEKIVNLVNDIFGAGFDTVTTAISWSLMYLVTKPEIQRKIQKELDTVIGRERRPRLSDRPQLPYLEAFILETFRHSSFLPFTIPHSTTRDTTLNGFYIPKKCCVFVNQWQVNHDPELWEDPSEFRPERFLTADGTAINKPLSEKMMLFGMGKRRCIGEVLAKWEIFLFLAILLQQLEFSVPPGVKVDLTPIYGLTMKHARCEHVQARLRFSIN
Briefly: P450 cocktail inhibition assay, CYP1A2. In kind it is in vitro ADME. As to conditions: at 10 μM. The protocol:
(§2) P450s inhibition for four major isoforms are evaluated using a cocktail inhibition assay where the metabolism of specific marker substrate (CYP1A2 phenaceten […] to acetaminophen); CYP2C9, tolbutamide hydroxylation to hydrocytolbutamide; CYP2D6, bufuralol hydroxylation to […]; and CYP3A4, midazolam hydroxylation to 1′-Hydroxymidazolam) in the presence or absence of 10 TM probe compound is evaluated. The concentration of each marker substrate is approximately its Km. […] Specific inhibitors for each isoform are included in each run to validate the system.

For the next series, the system named is SHSY5Y cells. Briefly: MTT cytotoxicity assay.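 Note: compounds tested at 10 µM final concentration.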 Type of series: cell-based. Set-up: dose or concentration left out as unconfirmed. To be noted: 48 hrs, average of ≥2 experiments. The protocol:
A day before the assay, cells were plated at 50,000/well in 96 well plates in the culture medium. […] After the incubation, cells were subjected to MTT assay using Vybrant MTT Cell Proliferation kit as directed by the vendor (Life Technologies).
On the technique in general: Tetrazolium dyes change colour on reduction, which living cells bring about.

Series [1] in a line: Microsomal stability, mouse. In kind it is in vitro ADME. As to conditions: mouse microsomes.
Series [2] is described as follows: Microsomal stability, human. To be noted: human microsomes. Type of series: in vitro ADME.
Another series concerns the target CYP3A4 (Homo sapiens, UniProt P08684). The experiment in a line: P450 cocktail inhibition assay, CYP3A4. Type of series: in vitro ADME. As to conditions: at 10 μM. Here is the method: as §2
In another series the target is CYP2C9 (Homo sapiens, UniProt P11712). The experiment in a line: P450 cocktail inhibition assay, CYP2C9. In kind it is in vitro ADME. To be noted: at 10 μM. The protocol:
as §2

The target of a further series is CYP2D6 (Homo sapiens, UniProt P10635). The experiment in a line: P450 cocktail inhibition assay, CYP2D6. In kind it is in vitro ADME. As to conditions: at 10 μM. Here is the method:
as §2

[3] abbreviates: mean of ≥2 experiments, read-out: Biochemical inhibition IC50 JNK3.
[4] abbreviates: mean of ≥2 experiments, read-out: Biochemical inhibition IC50 JNK1.

Like-named read-outs stand apart in the source and are kept apart here.

JNK3α1, sequence (P53779 1-422 isoform P53779-2): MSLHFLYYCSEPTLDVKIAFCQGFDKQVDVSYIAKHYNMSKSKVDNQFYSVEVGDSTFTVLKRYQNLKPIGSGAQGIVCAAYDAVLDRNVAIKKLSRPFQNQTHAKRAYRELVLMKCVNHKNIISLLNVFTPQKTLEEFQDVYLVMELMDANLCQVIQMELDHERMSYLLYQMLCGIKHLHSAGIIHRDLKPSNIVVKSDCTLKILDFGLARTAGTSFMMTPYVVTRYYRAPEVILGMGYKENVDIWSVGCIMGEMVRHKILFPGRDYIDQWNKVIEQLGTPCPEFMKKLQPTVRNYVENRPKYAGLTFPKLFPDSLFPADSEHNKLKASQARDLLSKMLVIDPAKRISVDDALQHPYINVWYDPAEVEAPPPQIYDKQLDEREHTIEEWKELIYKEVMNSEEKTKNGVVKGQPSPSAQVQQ
JNK1, sequence (P45983 whole entry, canonical isoform): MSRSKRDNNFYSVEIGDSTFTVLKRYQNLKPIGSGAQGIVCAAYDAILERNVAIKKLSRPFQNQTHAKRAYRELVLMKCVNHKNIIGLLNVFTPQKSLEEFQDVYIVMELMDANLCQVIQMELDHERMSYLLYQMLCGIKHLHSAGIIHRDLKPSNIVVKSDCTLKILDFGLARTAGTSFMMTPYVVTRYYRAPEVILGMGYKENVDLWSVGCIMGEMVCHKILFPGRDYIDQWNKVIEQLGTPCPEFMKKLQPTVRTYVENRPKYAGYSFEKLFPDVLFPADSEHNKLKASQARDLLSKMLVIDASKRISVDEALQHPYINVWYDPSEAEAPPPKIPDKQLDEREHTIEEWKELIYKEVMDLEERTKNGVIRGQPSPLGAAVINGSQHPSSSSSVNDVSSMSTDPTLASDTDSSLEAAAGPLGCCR
p38α, sequence (Q16539 whole entry, canonical isoform): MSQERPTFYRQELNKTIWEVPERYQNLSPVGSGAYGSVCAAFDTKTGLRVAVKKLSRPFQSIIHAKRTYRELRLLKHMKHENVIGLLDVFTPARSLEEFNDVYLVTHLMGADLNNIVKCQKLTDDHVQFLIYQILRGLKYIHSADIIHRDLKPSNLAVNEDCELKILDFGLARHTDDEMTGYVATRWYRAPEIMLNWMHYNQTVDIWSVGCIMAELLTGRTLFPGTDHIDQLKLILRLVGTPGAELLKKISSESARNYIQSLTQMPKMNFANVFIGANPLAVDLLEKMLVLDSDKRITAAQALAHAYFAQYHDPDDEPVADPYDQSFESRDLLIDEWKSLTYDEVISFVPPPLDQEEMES
CYP3A4, sequence (P08684 whole entry): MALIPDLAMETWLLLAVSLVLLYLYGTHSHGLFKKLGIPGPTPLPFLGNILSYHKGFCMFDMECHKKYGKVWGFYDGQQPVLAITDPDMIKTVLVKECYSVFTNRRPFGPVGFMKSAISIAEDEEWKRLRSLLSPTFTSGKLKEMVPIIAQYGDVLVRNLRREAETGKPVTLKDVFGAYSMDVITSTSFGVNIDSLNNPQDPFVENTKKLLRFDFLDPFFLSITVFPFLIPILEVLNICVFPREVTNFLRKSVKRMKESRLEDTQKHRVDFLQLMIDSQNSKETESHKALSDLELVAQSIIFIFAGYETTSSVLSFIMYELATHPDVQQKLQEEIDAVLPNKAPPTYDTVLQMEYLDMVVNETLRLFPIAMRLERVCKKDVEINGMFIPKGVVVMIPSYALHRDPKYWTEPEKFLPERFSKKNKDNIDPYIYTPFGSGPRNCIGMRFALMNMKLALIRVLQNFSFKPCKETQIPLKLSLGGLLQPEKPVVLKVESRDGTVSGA
CYP2C9, sequence (P11712 whole entry): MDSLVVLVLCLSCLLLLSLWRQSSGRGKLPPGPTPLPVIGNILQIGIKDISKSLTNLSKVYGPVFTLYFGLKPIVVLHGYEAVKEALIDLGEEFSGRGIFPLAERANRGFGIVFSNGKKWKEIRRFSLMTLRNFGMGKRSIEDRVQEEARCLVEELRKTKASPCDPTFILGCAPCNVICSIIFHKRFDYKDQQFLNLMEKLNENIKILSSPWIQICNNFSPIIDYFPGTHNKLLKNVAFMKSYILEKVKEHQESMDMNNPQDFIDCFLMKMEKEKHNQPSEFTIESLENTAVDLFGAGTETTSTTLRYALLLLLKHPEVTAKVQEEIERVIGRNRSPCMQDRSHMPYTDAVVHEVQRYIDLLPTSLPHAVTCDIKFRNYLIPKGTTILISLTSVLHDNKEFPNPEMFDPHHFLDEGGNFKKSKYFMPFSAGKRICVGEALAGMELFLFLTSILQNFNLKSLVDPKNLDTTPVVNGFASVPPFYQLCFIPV
CYP2D6, sequence (P10635 whole entry): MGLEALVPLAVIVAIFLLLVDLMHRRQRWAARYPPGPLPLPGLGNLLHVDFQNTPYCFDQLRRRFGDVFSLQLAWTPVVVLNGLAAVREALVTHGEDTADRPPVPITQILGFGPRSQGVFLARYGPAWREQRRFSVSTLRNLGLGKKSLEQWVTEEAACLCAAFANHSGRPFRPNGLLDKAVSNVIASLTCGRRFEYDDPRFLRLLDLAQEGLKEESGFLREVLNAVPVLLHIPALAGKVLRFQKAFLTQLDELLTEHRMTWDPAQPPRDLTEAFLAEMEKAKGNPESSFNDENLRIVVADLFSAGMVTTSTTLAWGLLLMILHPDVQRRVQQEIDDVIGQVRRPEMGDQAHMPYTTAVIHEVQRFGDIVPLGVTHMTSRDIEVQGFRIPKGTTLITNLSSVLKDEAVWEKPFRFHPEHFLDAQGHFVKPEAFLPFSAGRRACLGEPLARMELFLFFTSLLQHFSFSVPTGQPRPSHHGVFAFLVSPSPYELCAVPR

Consider `O=C(Nc1cnn(-c2nc(C(=O)NC3CNC3)cs2)c1)Nc1ccccc1Cl` [Compound 3, N-(azetidin-3-yl)-2-(4-(3-(2-chlorophenyl)ureido)-1H-pyrazol-1-yl)thiazole-4-carboxamide], for which the “inhibition of JNK3” value against JNK3α1 (in words, FIG. 3) is “no inhibition”. Also, the “inhibition of JNK1” value against JNK1 (in words, FIG. 3) is listed as “no inhibition”.
One may read the IC50 as the concentration that inhibits the measured activity by half. Regarding `O=C(Nc1cnn(-c2ccc(C(=O)NC3CNC3)s2)c1)Nc1ccccc1Cl` [Compound 4, N-(azetidin-3-yl)-5-(4-(3-(2-chlorophenyl)ureido)-1H-pyrazol-1-yl)thiophene-2-carboxamide], the 50% inhibitory concentration (IC50) at JNK3α1 (setting [3]) is 0.8 µM.
Regarding `O=C(Nc1cnn(-c2cc(C(=O)NC3CNC3)cs2)c1)Nc1ccccc1Cl` [Compound 5, N-(azetidin-3-yl)-5-(4-(3-(2-chlorophenyl)ureido)-1H-pyrazol-1-yl)thiophene-3-carboxamide], at JNK3α1 (setting [3]), the IC50 turned out to be 0.2 µM.
As to `O=C(Nc1cnn(-c2csc(C(=O)NC3CNC3)c2)c1)Nc1ccccc1Cl` [Compound 6, N-(azetidin-3-yl)-4-(4-(3-(2-chlorophenyl)ureido)-1H-pyrazol-1-yl)thiophene-2-carboxamide], the 50% inhibitory concentration (IC50) is 0.05 µM on JNK3α1 (setting [3]), 3.6 µM at JNK1 (setting [4]) and > 20 µM at p38α. For the same molecule, the “isoform selectivity against JNK1” value at JNK1 (JNK3 over JNK1, text) turned out to be 72 fold. Also, the “R: ratio of IC50 values of JNK1 over JNK3” value (from here on “R: ratio … of JNK1 over JNK3”) on JNK1 stood at 72.
With `CNC(=O)c1cc(-n2cc(NC(=O)Nc3ccccc3Cl)cn2)cs1` [Compound 7, 4-(4-(3-(2-chlorophenyl)ureido)-1H-pyrazol-1-yl)-N-methylthiophene-2-carboxamide], the IC50 at JNK1 and at p38α was > 20 µM throughout.
Turning to `O=C(Nc1cnn(-c2csc(C(=O)N[C@@H]3CCNC3)c2)c1)Nc1ccccc1Cl` [Compound 9, (R)-4-(4-(3-(2-chlorophenyl)ureido)-1H-pyrazol-1-yl)-N-(pyrrolidin-3-yl)thiophene-2-carboxamide], the 50% inhibitory concentration (IC50) at JNK3α1 (setting [3]) is 0.132 µM; on JNK1 (setting [4]) it was 5.9 µM.
As to `CN1CC[C@@H](NC(=O)c2cc(-n3cc(NC(=O)Nc4ccccc4Cl)cn3)cs2)C1` [Compound 10, (R)-4-(4-(3-(2-chlorophenyl)ureido)-1H-pyrazol-1-yl)-N-(1-methylpyrrolidin-3-yl)thiophene-2-carboxamide], the IC50 was 0.085 µM at JNK3α1 (setting [3]) and 5.1 µM at JNK1 (setting [4]). The “R: ratio … of JNK1 over JNK3” value at JNK1 stood at 60.
The matching figures for `[2H]C([2H])([2H])N1CC[C@@H](NC(=O)c2cc(-n3cc(NC(=O)Nc4ccccc4Cl)cn3)cs2)C1` [Compound 11, (R)-4-(4-(3-(2-chlorophenyl)ureido)-1H-pyrazol-1-yl)-N-(1-(methyl-d3)pyrrolidin-3-yl)thiophene-2-carboxamide]: 0.083 µM, 5.1 µM and 61.
As for `CN1CC[C@H](NC(=O)c2cc(-n3cc(NC(=O)Nc4ccccc4Cl)cn3)cs2)C1` [Compound 12, (S)-4-(4-(3-(2-chlorophenyl)ureido)-1H-pyrazol-1-yl)-N-(1-methylpyrrolidin-3-yl)thiophene-2-carboxamide], at JNK2, the “isoform selectivity against JNK2 vs JNK3” value was “around 40 folds”, the “R: ratio of IC50 values of JNK2 over JNK3” value was 39 and the half-maximal inhibitory concentration (IC50) amounted to 1.51 µM. Further, the “CYP-450 % inh. 1A2” value on CYP1A2 is reported as −1%. Also, the MTT cell viability with SHSY5Y cells is 94%. Besides, the “Mic. stability t1/2 Mouse” value in series [1] is given as 20 min. Besides, the IC50 at JNK3α1 (setting [3]) was 0.039 µM. The “R: ratio … of JNK1 over JNK3” value at JNK1 was 56. The 50% inhibitory concentration (IC50) at JNK1 (setting [4]) stood at 2.2 µM. Further, in series [2], the “Mic. stability t1/2 Human” value stood at 54 min. The “CYP-450 % inh. 3A4” value at CYP3A4 is −18%. Moreover, the “CYP-450 % inh. 2C9” value on CYP2C9 is given as −9%. Moreover, the “CYP-450 % inh. 2D6” value on CYP2D6 is reported as 20%.
`CC(C)N1CC[C@H](NC(=O)c2cc(-n3cc(NC(=O)Nc4ccccc4Cl)cn3)cs2)C1` [Compound 13, (S)-4-(4-(3-(2-chlorophenyl)ureido)-1H-pyrazol-1-yl)-N-(1-isopropylpyrrolidin-3-yl)thiophene-2-carboxamide]: the IC50 on JNK3α1 (setting [3]) stood at 0.012 µM; on JNK1 (setting [4]), 0.72 µM. Moreover, the “R: ratio … of JNK1 over JNK3” value on JNK1 stood at 60.
With `O=C(Nc1cnn(-c2csc(C(=O)N[C@@H]3CCOC3)c2)c1)Nc1ccccc1Cl` [Compound 16, (R)-4-(4-(3-(2-chlorophenyl)ureido)-1H-pyrazol-1-yl)-N-(tetrahydrofuran-3-yl)thiophene-2-carboxamide], at JNK2, the “isoform selectivity against JNK2 vs JNK3” value was > 250 folds, the “R: ratio of IC50 values of JNK2 over JNK3” value is reported as 253 and the half-maximal inhibitory concentration (IC50) stood at 2.02 µM. The “CYP-450 % inh. 1A2” value at CYP1A2 is 17%. In addition, the MTT cell viability in the series on SHSY5Y cells is listed as 112%. Besides, the “Mic. stability t1/2 Mouse” value in [1] is 13 min. For the same molecule, the 50% inhibitory concentration (IC50) on JNK3α1 (read-out: JNK3 inhibitory activity IC50) was found to be 0.008 µM. In addition, the “R: ratio … of JNK1 over JNK3” value on JNK1 turned out to be 188. The concentration for half-maximal inhibition (IC50) at JNK1 (setting [4]) is 1.5 µM. For the same molecule, in series [2], the “Mic. stability t1/2 Human” value is 33 min. For the same molecule, the “CYP-450 % inh. 3A4” value at CYP3A4 was −20%. Further, on CYP2C9, the “CYP-450 % inh. 2C9” value worked out at 38%. Moreover, the “CYP-450 % inh. 2D6” value on CYP2D6 came to 1%.
With `CC1(NC(=O)c2cc(-n3cc(NC(=O)Nc4ccccc4Cl)cn3)cs2)COC1` [Compound 18, 4-(4-(3-(2-chlorophenyl)ureido)-1H-pyrazol-1-yl)-N-(3-methyloxetan-3-yl)thiophene-2-carboxamide], the half-maximal inhibitory concentration (IC50) at JNK3α1 (setting [3]) was 0.045 µM; on JNK1 (setting [4]), 3.3 µM; on p38α, > 20 µM. The “R: ratio … of JNK1 over JNK3” value at JNK1 was determined as 73.
The corresponding values for `CN1CCC(CNC(=O)c2cc(-n3cc(NC(=O)Nc4ccccc4Cl)cn3)cs2)CC1` [Compound 19, 4-(4-(3-(2-chlorophenyl)ureido)-1H-pyrazol-1-yl)-N-((1-methylpiperidin-4-yl)methyl)thiophene-2-carboxamide] are 0.142 µM, 5.8 µM, > 20 µM and 41.
As for `O=C(Nc1cnn(-c2csc(C(=O)NCC3CCNCC3)c2)c1)Nc1ccccc1Cl` [Compound 20, 4-(4-(3-(2-chlorophenyl)ureido)-1H-pyrazol-1-yl)-N-(piperidin-4-ylmethyl)thiophene-2-carboxamide], the IC50 at JNK1 (setting [4]) was 6.6 µM; on p38α, > 20 µM.
As to `CN1CC[C@H](CNC(=O)c2cc(-n3cc(NC(=O)Nc4ccccc4Cl)cn3)cs2)C1` [Compound 21, (R)-4-(4-(3-(2-chlorophenyl)ureido)-1H-pyrazol-1-yl)-N-((1-methylpyrrolidin-3-yl)methyl)thiophene-2-carboxamide], the figures for the IC50 on JNK3α1 (setting [3]) and on JNK1 (setting [4]) were 0.222 µM and 10.3 µM, respectively. In addition, the “R: ratio … of JNK1 over JNK3” value on JNK1 turned out to be 46.
The corresponding values for `O=C(Nc1cnn(-c2csc(C(=O)NC[C@H]3CCOC3)c2)c1)Nc1ccccc1Cl` [Compound 22, (R)-4-(4-(3-(2-chlorophenyl)ureido)-1H-pyrazol-1-yl)-N-((tetrahydrofuran-3-yl)methyl)thiophene-2-carboxamide] are 0.071 µM, 2.2 µM and 31.
`CN1CCC[C@H]1CNC(=O)c1cc(-n2cc(NC(=O)Nc3ccccc3Cl)cn2)cs1` [Compound 23, (S)-4-(4-(3-(2-chlorophenyl)ureido)-1H-pyrazol-1-yl)-N-((1-methylpyrrolidin-2-yl)methyl)thiophene-2-carboxamide]: the values for the half-maximal inhibitory concentration (IC50) on JNK3α1 (setting [3]) and on JNK1 (setting [4]) were 0.085 µM and 9.1 µM, respectively. Moreover, the “R: ratio … of JNK1 over JNK3” value at JNK1 is listed as 107.

(Values after patent US20240246942A1, “KINASE INHIBITORS FOR THE TREATMENT OF NEURODEGENERATIVE DISEASES” (priority 2020, published 2024).)
